Measured values taken from patent US8691864B2, “Agents useful for reducing amyloid precursor protein and treating dementia and methods of use thereof” (priority 2000, dated 2014).

Columns and labels:
secreted APP = assay: ELISA for secreted APP in SHSY5Y cells; format: cell-based, human; settings: 16 hours
SH-SY-5Y Cells = assay: MTS toxicity assay in SHSY5Y cells; format: cell-based, human

| Compound | APP Secretion by SH-SY-5Y Cells (secreted APP; Dose 2 uM) [% vehicle control] | APP Secretion by SH-SY-5Y Cells (secreted APP; Dose 6 uM) [% vehicle control] | APP Secretion by SH-SY-5Y Cells (secreted APP; Dose 20 uM) [% vehicle control] | APP Toxicity SH-SY-5Y Cells (MTS assay) (SH-SY-5Y Cells; Dose 2 uM) [% vehicle control] | APP Toxicity SH-SY-5Y Cells (MTS assay) (SH-SY-5Y Cells; Dose 6 uM) [% vehicle control] | APP Toxicity SH-SY-5Y Cells (MTS assay) (SH-SY-5Y Cells; Dose 20 uM) [% vehicle control] |
| --- | --- | --- | --- | --- | --- | --- |
| COc1ccc2c(c1)[C@@](C)(CCN(C)C)C(=O)N2C [MES 9310] | 104.8 | 97.85 | 98.95 | 101.85 | 99.9 | 97.7 |
| CN(C)CC[C@]1(C)C(=O)N(C)c2ccc(O)cc21 [MES 9311] | 102.45 | 103.05 | 102.7 | 101.1 | 101.25 | 99.55 |
| CN1C(=O)C(=O)c2ccccc21 [MES 9312] | 105.4 | 101.7 | 96.65 | 99.95 | 103.85 | 106.95 |
| COc1ccc2c(c1)[C@](C)(CCN)C(=O)N2C.Cl [MES 9314] | 111.25 | 99.15 | 109.4 | 100.15 | 100.85 | 100.6 |
| COc1ccc2[nH]c3c(c2c1)CCN(C)C3 [MES 9316] | 104.15 | 98.45 | 102 | 99.15 | 98.05 | 98.75 |
| COC(=O)NCCC1C(=O)N(Cc2ccccc2)c2ccc(OC)cc21 (stereo not drawn) [MES 9317] | 99.87 | 112.3 | 122 | 97.27 | 97.23 | 93.5 |
| COc1ccc2c(c1)[C@]1(C)CCOC1N2C (stereo partly drawn) [MES 9318] | 104.05 | 103.4 | 108.75 | 96.2 | 96.45 | 96.05 |
| COc1ccc2c(c1)C(O)(c1ccccc1)C(=O)N2C (stereo not drawn) [MES 9319] | 108.95 | 114.1 | 112.8 | 99.8 | 101.05 | 102.7 |
| COc1ccc2[nH]cc(CCN)c2c1.Cl [MES 9321] | 97.95 | 98.1 | 100.5 | 99.9 | 101.15 | 99.45 |
| COc1ccc2c(c1)C(C)(c1ccccc1)C(=O)N2C (stereo not drawn) [MES 9324] | 110.3 | 95.9 | 99.95 | 102.15 | 100.4 | 98.65 |
